Measurements reported in patent US10563272B2, “Compositions comprising Metarhizium fungi and use thereof as a pesticide” (Cotton Research and Development Corporation, priority 2015, dated 2020).

Experiments:
[1] = system: predatory lacewings; assay: Bollgard II cotton, Auscott-Togo 2012-13, Field 63 (Experiment 2): predatory lacewings; format: in vivo, Chrysopa spp., Micromus tasmaniae; conditions: 62.5 mL/ha
Protocol: Two separate trials (Experiment 1 in Field 77; Experiment 2 in Field 63) were conducted in Bollgard II cotton crops on a commercial cotton farm at Auscott-Togo near Narrabri, New South Wales from 11 Feb. to 5 Mar. 2013 (Field 77) and 19 Feb. to 6 Mar. 2013 (Field 63). The cotton used for each of the trials was at the late squaring to pod setting and maturation stages which was fairly attractive to green mirids.
(§1) In both trials, the efficacy of the following treatments against green mirids and predatory insects was evaluated: • 1. 250 mL/ha DAT 511 spore in oil (1×10^7 spores/ml); • 2. 500 mL/ha DAT 511 spore in oil (1×10^7 spores/ml); • 3. 1 L/ha DAT 511 spore in oil (1×10^7 spores/ml); • 4. 62.5 mL/ha of fipronil; and • 5. Unsprayed (negative control).
(§2) The treatment plots were arranged in a randomized complete block design with six replicates per treatment. Each replicated plot measured 40 m wide (40 rows) and 90 m long.
Foliar application of each treatment was made on 28 Feb. (for both green mirids and beneficial insects) and 13 Mar. 2012 (for beneficial insects alone) using a ground spray rig fitted with flat fan nozzles to achieve a droplet size of 200 μm. The treatment was applied during the mornings when temperatures were between 20° C. and 28° C. The timing of treatment was based on the IPM Guidelines and recommendations by CottonLogic to use an economic threshold of 0.5 green mirids per metre (Deutscher and Wilson 1999; Khan et al. 2004).
Pre-treatment counts of green mirid adults and nymphs, predatory beetles, predatory bugs, predatory lacewings and spiders were made by visual inspection of whole cotton plants. Both adults and nymphs of beneficial insects were counted. Plants were assessed in randomly selected one-metre lengths of row of each replicate (i.e. 6 m per treatment). Post-treatment counts were made 3, 7, 14 and 21 days after treatment. Data are expressed as numbers of green mirid adults and nymphs counted per metre for each treatment.

[2] = system: predatory beetles; assay: Rate trial on conventional cotton, Norwood 2012 (Example 10): predatory beetles; format: in vivo, Coleoptera (Coccinellidae, Melyridae); conditions: 3 and 6 Mar. 2012; fipronil 62.5 mL/ha; P<0.05
Protocol: This trial was conducted on commercial conventional cotton crops on a farm at Norwood (29° 28'S, 149° 50′E) near Moree, NSW, from 28 Feb. to 21 Mar. 2012. The cotton used for the trial was at the early squaring stage, when it was attractive to green mirids (Khan et al. 2004).
as §1, with “The” for “In both trials, the”, “were” for “was”, “Fipronil;” for “fipronil;”
as §2
Foliar application of each treatment was made on 28 Feb. (for both green mirids and beneficial insects) and 13 Mar. […]
Pre-treatment counts of adult and nymph green mirids, predatory beetles, predatory bugs, predatory lacewings and spiders were made by visual inspection of whole cotton plants. Both adults and nymphs of beneficial insects were counted. Plants were assessed in randomly selected one-metre lengths of row of each treatment replicate (i.e. 6 m per treatment). […] Data are expressed as numbers of green mirid adults and nymphs counted per metre per treatment.

[3] = system: apple dimpling bugs; assay: Rate trial on conventional cotton refuge crops, Undabri 2012 (Example 12): apple dimpling bugs; format: in vivo, Campylomma liebknechti
Protocol: This trial was conducted using commercial conventional cotton refuge crops at Undabri in Goondiwindi (28° 55'S, 150° 31′E) from 14 Feb. to 6 Mar. 2012.
as §1, with “The” for “In both trials, the”, “mirids, green vegetable bugs” for “mirids”, “assessed:” for “evaluated:”, “mL/ha” for “mL/ha of”
The plots were arranged in a randomized complete block design with three replicates per treatment. Each replicated plot measured 8 m (8 rows) wide and 250 m long.
Foliar applications of each treatment were made on 14 Feb. 2012 using a ground spray rig fitted with flat fan nozzles to achieve a droplet size of 200 μm. All insecticide formulations were water miscible. All treatments were applied using a spray volume of 100 L/ha. The untreated (negative control) plot was left unsprayed and the plot treated with synthetic insecticide received two applications similar to, and on the same date as, the plots treated with the fungus.
For each replicate, visual counts of adults and nymphs of green mirids, green vegetable bugs (GVB), apple dimpling bugs and predatory insects on whole cotton plants were made in a randomly selected 1 m length of row of cotton plants (i.e. 6 m per treatment). […]

`N#Cc1nn(-c2c(Cl)cc(C(F)(F)F)cc2Cl)c(N)c1[S+]([O-])C(F)(F)F` (centres unmarked) [fipronil] was tested, and the “No. predatory lacewings per meter” value ([1]; 3 DAT) was 0.00 ± 0.00 a per meter, the “No. predatory lacewings per meter” value ([1]; 7 DAT) was 0.00 ± 0.00 a per meter and the “No. predatory lacewings per meter” value ([1]; 14 DAT) was 0.00 ± 0.00 a per meter. The “No. predatory lacewings per meter” value ([1]; 21 DAT) was 0.00 ± 0.00 a per meter, the “No. predatory lacewings per meter” value ([1]; pre-spray counts) was 0.67 ± 0.33 a per meter and the “number of predatory beetles per metre versus unsprayed and DAT 511 treated plots” value [2] was “significantly lower”. For the same molecule, the “apple dimpling bug adults per metre versus the unsprayed plot” value ([3]; 3, 7, 14 and 21 DAT, P<0.01) was “significantly fewer” and the “apple dimpling bug nymphs per metre versus unsprayed plots” value ([3]; 7 DAT only, P<0.05) was “significantly lower”.
